Assays:
[1] = Liver microsome stability; type: in vitro ADME; conditions: liver microsomes, rat liver microsome, 37° C., read-out: Liver microsome T1/2 (converted)
Text: Microsomes are vesicles of endoplasmic reticulum isolated from liver homogenate following differential centrifugation. They contain drug metabolising enzymes including the cytochromes P450 (CYP) responsible for a majority of drug metabolism. They also contain the phase II metabolising enzyme responsible for glucuronidation—uridine diphosphate glucuronyltransferase (UDPGT). As they contain many of the drug metabolizing enzymes found in the liver they are useful in vitro models of hepatic clearance. Assays are performed by incubating drugs of interest at a concentration of 1 μM with the microsomes at 37° C. The disappearance of the test compound is monitored at fixed points over a period of 60 minutes and samples analysed using LC-MSMS. The resulting data can be used to determine: • 1. Intrinsic clearance. These values can be used to categorise compounds into bands of high, medium or low clearance. Generally compounds with high clearances are considered to be less favourable as they are likely to be cleared more rapidly in vivo resulting in a short duration of action. • 2. Rank order compounds in order of microsomal stability by calculating half-life. Cytochrome Profiling […]

mP2X7R = target: T1, mP2X7R (Mus musculus, UniProt Q9Z1M0); assay: Calcium influx assay in HEK-mP2X7 cells; type: cell-based; conditions: HEK cells expressing mP2X7R, BzATP 100 μM; mean ± standard deviation, n >3
T1 construct: expressed in transfected cells; host or cells: HEK293T, G418-selected; gift from Dr Leanne Stokes and Prof; Jim Wiley
T1 sequence (Q9Z1M0 1-595): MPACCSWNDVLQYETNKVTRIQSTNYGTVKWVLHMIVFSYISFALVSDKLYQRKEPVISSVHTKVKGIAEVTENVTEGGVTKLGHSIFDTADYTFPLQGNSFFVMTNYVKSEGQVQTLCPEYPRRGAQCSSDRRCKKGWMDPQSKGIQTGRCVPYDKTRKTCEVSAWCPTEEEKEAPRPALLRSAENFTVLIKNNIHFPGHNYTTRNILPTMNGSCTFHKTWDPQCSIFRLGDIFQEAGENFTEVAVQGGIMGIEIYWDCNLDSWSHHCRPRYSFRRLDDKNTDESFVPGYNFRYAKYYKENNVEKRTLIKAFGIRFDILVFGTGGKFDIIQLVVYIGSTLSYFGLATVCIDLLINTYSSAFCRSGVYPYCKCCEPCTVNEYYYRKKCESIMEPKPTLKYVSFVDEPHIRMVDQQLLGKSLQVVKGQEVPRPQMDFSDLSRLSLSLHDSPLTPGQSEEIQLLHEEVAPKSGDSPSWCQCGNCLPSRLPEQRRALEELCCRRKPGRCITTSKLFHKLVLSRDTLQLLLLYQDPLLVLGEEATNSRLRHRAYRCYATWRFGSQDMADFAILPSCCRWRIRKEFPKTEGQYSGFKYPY
Experimental: HEK293T cells transfected with cDNA for the human (HEK-hP2X7) or mouse P2X7 (HEK-mP2X7) receptor (a kind gift from Dr […] Stokes and Prof. Jim Wiley) were cultured in DMEM/F12 with 10% FBS and 500 μg/mL G418 (all from Invitrogen). […] HEK-hP2X7 or HEK-mP2X7 cells were harvested using trypsin (0.05%) with EDTA (0.03%). Cells were loaded with Fluo-4 AM (1 μM) in HBSS buffer at 37° C. for 30 min, inverting every 5 mins. […] Cells were resuspended a final time in assay buffer and seeded into black-walled 96 well clear-bottom plates at a density of 5×10^4 cells/well. […] Fluorescence was then monitored every 5 s for 5 min total monitoring. […] Data were normalized to the peak response seen with BzATP alone and the basal response seen due to injection of vehicle (see FIG. 3).

[2] = Lipophilicity: Log D7.4 determined by HPLC method; type: physicochemical; conditions: for lipophilicity compared with compound 31: HPLC logD7.4; for logD7.4 / chromatographic logD: HPLC retention time, 65 v/v % methanol in 50 mM sodium phosphate buffer pH 7.4; for chromatographic logD: reversed-phase HPLC, Waters Sunfire C18 5 µm column, read-out: logD7.4
Experimental: Lipophilicity of the compounds was evaluated by an experimentally derived Log D7.4 value determined by a HPLC method.^1 It is preferred that the lipophilicity of the compounds is as low as possible.
High Performance Liquid Chromatography was performed on a Waters 2695 Separations module equipped with the Waters Alliance Series Column Heater (set at 30° C.) and Waters 2996 Photodiode Array (PDA) Detector. […] Standards and samples were dissolved in the elution solvent mixture and then filtered prior to injection. Data acquisition and processing was performed with the Waters Empower 2 software and Microsoft Excel™ was used for data analysis. All standards and samples were analyzed in triplicate.
. An […] curve was obtained (FIG. 1) which was fitted to the equation [Log D7.4=0.8342(RET)+1.7393] with an R^2 of 0.97.
The RET from three injections was averaged with the log D7.4 value extrapolated from the equation found in FIG. 1.

[3] = Plasma protein binding, rapid equilibrium dialysis; type: in vitro ADME; conditions: rat plasma, 4 hours 37° C., read-out: pb (% bound) Plasma (converted)
Experimental: Determining the extent to which a molecule binds to factors present within plasma and brain is a critical phase of drug development as this determines not only the free unbound fraction available to exert the desired pharmacological actions but also influences dosing, clearance rate and the potential for drug-drug interactions. Binding is measured with the rapid equilibrium dialysis technique using cartridges consisting of two compartments (sample and buffer chamber) separated by a dialysis membrane.
All compounds are prepared in 100% DMSO to provide 10 mM stock solutions. Sample material is prepared by spiking a known volume of plasma or brain with the stock solution such that the final concentration of compound is 1 μM. This is placed in the sample chamber of the dialysis cartridge. Dialysis buffer is then added to the buffer chamber and the cartridge incubated at 37° C. for 4 hours. Following the incubation the test compound concentrations are determined in the two chambers and the % free or bound component calculated using the equation below:
[formula] [formula] In Vivo Pharmacokinetic Studies

CYP2D6 = target: T2, CYP2D6 (Homo sapiens, UniProt P10635); assay: Cytochrome profiling CYP2D6 (baculosomes); type: in vitro ADME; conditions: probe fluorogenic probe substrate (not named), 10 μM substrate
T2 construct: host or cells: insect cells infected with recombinant baculovirus (microsomes)
T2 sequence (P10635 whole entry): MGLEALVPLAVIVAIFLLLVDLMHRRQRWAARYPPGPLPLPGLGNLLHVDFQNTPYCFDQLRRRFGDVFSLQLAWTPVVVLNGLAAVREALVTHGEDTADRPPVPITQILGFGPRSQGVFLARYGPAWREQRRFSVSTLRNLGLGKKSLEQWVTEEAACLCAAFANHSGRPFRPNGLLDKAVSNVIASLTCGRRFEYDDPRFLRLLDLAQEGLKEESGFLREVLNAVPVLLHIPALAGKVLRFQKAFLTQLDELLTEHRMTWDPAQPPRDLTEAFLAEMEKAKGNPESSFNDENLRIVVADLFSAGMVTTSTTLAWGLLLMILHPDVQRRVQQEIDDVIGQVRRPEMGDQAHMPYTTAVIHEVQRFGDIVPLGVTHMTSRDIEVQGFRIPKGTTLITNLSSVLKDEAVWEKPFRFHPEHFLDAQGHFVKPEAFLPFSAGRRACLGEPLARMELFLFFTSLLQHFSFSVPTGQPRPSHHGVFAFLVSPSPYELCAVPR
Text: Cytochrome P450 (abbreviated CYP, P450 or CYP450) belong to very large and diverse superfamily of haemoproteins which accept both exogenous and endogenous compounds as substrates in enzymatic reactions and play a major role in drug metabolism. Although this class has more than 50 enzymes just 5 of them (CYP1A2, CYP2C9, CYP2C19, CYP2D6 and CYP3A4) are able to metabolise almost 90% of all drugs. Inhibition of these enzymes is one of the major reasons for drug-drug interactions. Consequently, detailed CYP inhibition profiles are a regulatory requirement for all new drugs. Inhibition potencies against the five most relevant CYP isoforms is performed using baculosomes; microsomes prepared from insect cells infected with recombinant baculovirus containing cDNA for a specific human P450 isozyme. The baculosomes are incubated with drug at a concentration of 1 μM in the presence of a probe substrate for 60 minutes at 37° C. The probe is normally metabolised by the baculosomes to produce a fluorescent metabolite. A substrate drug will compete for the isozyme and reduce the metabolism of the probe resulting in a decrease in the fluorescent signal. The percent inhibition due to the presence of the test compound is calculated using the following equation: [formula] • X=fluorescent intensity observed in the presence of test compound • A=fluorescent intensity observed in control • B=fluorescent intensity observed in the presence of the probe control

SMILES | half-life at 1 μM [1] [min] | IC50 (mP2X7R) [nM] | lipophilicity compared with compound 31 [2] | logD7.4 [2] | chromatographic logD [2] | fraction unbound at 4 h, 1 μM [3] | inhibition at 60 min, 1 μM (CYP2D6) [%]
COc1ccc(Cl)c(C(=O)NCC23CC4CC(CC(F)(C4)C2)C3)c1 [Compound 3, 2-Chloro-N-((3-fluoroadamantan-1-yl)methyl)-5-methoxybenzamide] | 4.8 | 1510 ± 339 | less lipophilic than compound 31 | 3.27 | 3.27 | 0.0597 | -28.9
COc1ccc(Cl)c(C(=O)NCC23CC4CC(CC(C4)C2)C3)c1 [Compound 31, reference compound] | 7.8 | 1900 ± 905 |  | 4.23 | 4.23 | 0.0079 | -47.3
COc1ccc(Cl)c(C(=O)NCC23CC4(F)CC(F)(CC(F)(C4)C2)C3)c1 [Compound 1, 2-Chloro-N-((3,5,7-trifluoroadamantan-1-yl)methyl)-5-methoxybenzamide] | 46.8 | 158 ± 44 | less lipophilic than compound 31 | 2.83 | 2.83 | 0.105 | -29.1
COc1ccc(Cl)c(C(=O)NCC23CC4CC(F)(CC(F)(C4)C2)C3)c1 [Compound 2, 2-Chloro-N-((3,5-difluoroadamantan-1-yl)methyl)-5-methoxybenzamide] | 18 | 575 ± 108 | less lipophilic than compound 31 | 2.85 | 2.85 | 0.115 | -25.3

— patent US12668568B2, “Adamantanyl-substituted benzamide compounds and their use as P2X7 receptor antagonists” (The University of Sydney, priority 2018, dated 2026)
